The subject of one series is Colinus virginianus. The note with it: acute, oral, mortality.
Another series deals with Canidae. The note with it: chronic; duration: 1 years; oral; Dog Other; clinical chemistry.
For another series, the system named is Daphnia magna. Conditions: chronic/long-term; duration: 21 days; reproduction.
In the next series the test system is Bibionidae. Conditions: chronic/long-term; duration: 28 days.
The next series relates to Apis mellifera. Conditions: acute, mortality.
The subject of the next series is Pimephales promelas. Conditions: chronic/long-term; duration: 28 days; growth.
The next series deals with Aphidius rhopalosiphi. In words: LR50; higher = less toxic. The note with it: not reported; mortality.

Regarding `NC(Cc1ncn[nH]1)C(=O)O` (configuration not stated) [1,2,4-Triazole-3-alanine], in the series on Colinus virginianus (diet), the LC50 is above 5000 mg/kg.
By NOAEL is commonly meant the highest dose or exposure tested at which no adverse effect was seen. As to `FC(F)C(F)(F)OCC(Cn1cncn1)c1ccc(Cl)cc1Cl` (configuration not stated) [Tetraconazole], the LD50 in the series on Rattus norvegicus (acute, mortality) was 1030 mg/kg-day; in the series with Colinus virginianus it was 132 mg/kg-day; in the series on Apis mellifera (dermal), 63 µg/piece; in the series with Apis mellifera (oral, unspecified), above 130 µg/piece. Also, the NOAEL with Rattus norvegicus (chronic, duration: 2 years, oral, diet, organ weight) came out at 0.4 mg/kg-day; with Rattus norvegicus (reproduction developmental, body weight) it was 5 mg/kg-day; with Rattus norvegicus (reproduction developmental, reproduction) it was 3.6 mg/kg-day; in the series with Canidae, 2.95 mg/kg-day. In addition, the NOEC with Anas platyrhynchos (reproductive) is 1.6 mg/kg-day; with Tagia sp. (chronic/long-term, duration: 4 weeks), at most 8.2 mg/kg; in the series with Daphnia magna it was 0.19 mg/L; with Bibionidae, 4.45 mg/L; in the series with Pimephales promelas, 0.3 mg/L. Also, the LC50 with Anas platyrhynchos (short-term, oral, feed, mortality) turned out to be 55.5 mg/kg-day; with Tagia sp. (acute, duration: 14 days, mortality), 71 mg/kg. In the series with Aphidius rhopalosiphi, the LR50 was 125 g/ha.

These data come from EPA's ToxValDB 9.5 (doi:10.2903/j.efsa.2008.152r).
